# Data reported in patent publication US9133143B2, “(3-fluoro-2-hydroxy)propyl-functionalized aryl derivatives or pharmaceutically acceptable salts thereof, method for preparing same, and pharmaceutical composition containing same as active ingredient for the diagnosis or treatment of neurodegenerative brain diseases” (FUTURECHEM CO., LTD., priority 2009, dated 2015).
# Columns and labels:
# [1] = target: T1, β-Amyloid (Aβ1-42) fibrils (Homo sapiens, UniProt P05067); experiment: Test of inhibitory binding ability against [125I]TZDM on β-amyloid fibrils; conditions: Aβ1-42 fibrils 10 nM, [125I]TZDM 0.05 nM, room temperature 3 hours; read-out: Ki, binding affinity (Ki) for [125I]TZDM (48)
# T1 construct: β-Amyloid peptide (Aβ1-42, Bachem, 1 mg); purchased Bachem
# Method: β-Amyloid peptide (Aβ1-42, Bachem, 1 mg) was completely dissolved in DMSO (1 mL) and then mixed well after adding phosphate buffer (pH 7.4, 9 mL). β-Amyloid fibrils produced by incubating at 37° C. for 60 minutes were distributed into e-tubes, 0.5 mL each, and stored in a refrigerator at −80° C.
# 10% ethanol (0.850 mL) was placed in a 12 mm×75 mm borosilicate test tube. […] Then, after adding [^125I]TZDM (48) (50 μL, final reaction concentration=0.05 nM), the resulting mixture was subjected to incubation at room temperature for 3 hours. 3 Hours later, after separating [^125I]TZDM (48) bound to the β-amyloid (Aβ1-42) fibrils from unbound [^125I]TZDM (48) using a cell harvester, gamma radiation was measured using a gamma counter. 2 μM ThT was used for testing of non-specific binding.
# [2] = Test of in vivo distribution of F-18-labeled compounds (concentration in brain, passage through blood-brain barrier); parameters: Concentration in brain of rats, At 2 minutes ([2 min]) / Concentration in brain of rats, At 30 minutes ([30 min]): unit not given here; conditions: SD rats; for Initial brain inflow: at 2 minutes; for [2 min]/[30 min] / [peak]/[30 min]: ratio of brain concentrations; for [2 min]/[30 min]: value smaller than 1 = cannot pass the blood-brain barrier well; for Concentration in brain of rats, Highest ([peak]) / Time of highest concentration in brain (in parentheses): F-18-labeled compound
# Method: In order to test the passing of the aryl derivative with the (3-fluoro-2-hydroxy)propyl group according to the present disclosure through the blood-brain barrier, the following experiment was carried out.
# After administering the F-18-labeled aryl derivatives prepared in Examples 10 to 13 or 2-(4-(N-monomethyl)aminophenyl)-6-(3-[^18F]fluoropropoxy)benzothiophene with no hydroxyl group, as control, to SD rats, peak concentration in the brain and concentrations at 2 minutes ([2 min]) and 30 minutes ([30 min]) were measured and pharmacokinetic properties were quantitatively compared.
# A larger value indicates easier passage through the blood-brain barrier.
# T1 sequence (P05067 672-713 limits assumed): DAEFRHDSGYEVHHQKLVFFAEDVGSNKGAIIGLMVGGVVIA
Ki [1] [nM],Compound,"Concentration in brain of rats, At 2 minutes ([2 min]) [2]","Concentration in brain of rats, At 30 minutes ([30 min]) [2]","Concentration in brain of rats, Highest ([peak]) [2]",Time of highest concentration in brain (in parentheses) [2] [s],[peak]/[30 min] [2],other results
0.16,"CNc1ccc(-c2nc3ccc(OC[C@H](O)CF)cc3s2)cn1 [Example 8, 2-[2-(N-monomethyl)aminopyridin-5-yl]-6-[(S)-3-fluoro-2-hydroxypropoxy]benzothiazole]",,,,,,
1.06,"CNc1ccc(-c2nc3ccc(OCC(O)CF)cc3s2)cc1 (racemic) [Example 6, 2-[4-(N-monomethyl)aminophenyl]-6-[(R/S)-3-fluoro-2-hydroxypropoxy]benzothiazole]",,,,,,
1.2,"CNc1ccc(-c2cc3ccc(OCC(O)CF)cc3s2)cc1 (racemic) [Example 1, 2-[4-(N-monomethyl)aminophenyl]-6-[(R/S)-3-fluoro-2-hydroxypropoxy]benzothiophene]",,,,,,

# The remaining lines, values behind:
Compound,Ki [1] [nM],"Concentration in brain of rats, At 2 minutes ([2 min]) [2]","Concentration in brain of rats, At 30 minutes ([30 min]) [2]","Concentration in brain of rats, Highest ([peak]) [2]",Time of highest concentration in brain (in parentheses) [2] [s],[peak]/[30 min] [2],other results
"CNc1ccc(-c2cc3ccc(OCCC[18F])cc3s2)cc1 [Control, 2-(4-(N-monomethyl)aminophenyl)-6-(3-[^18F]fluoropropoxy)benzothiophene, reference compound]",,2.02,2.18,,,,Initial brain inflow [2]: very low; [2 min]/[30 min] [2]: 0.93; [2 min]/[30 min] ([2]; listed as 2-[4-(N-monomethyl)aminophenyl]-6-β-[^18F]fluoropropoxy)benzothiophene): less than or equal to 1
"CNc1cccc(-c2nc3ccc(OCC(O)C[18F])cc3s2)c1 (racemic) [Example 12, 2-[3-(N-monomethyl)aminophenyl]-6-[(R/S)-3-[^18F]fluoro-2-hydroxypropoxy]benzothiazole]",,15.7,2.9,22.6,25,7.7,
"CNc1ccc(-c2cc3ccc(OCC(O)C[18F])cc3s2)cn1 (racemic) [Example 10, 2-[2-(N-monomethyl)aminopyridin-5-yl]-6-[(R/S)-3-[^18F]fluoro-2-hydroxypropoxy]benzothiophene]",,16.5,2.2,22.4,30,10.3,[2 min]/[30 min] value relative to that of the compound with no hydroxyl group at the propyl residue [2]: 8.1 times; Initial brain inflow [2]: very rapid; [2 min]/[30 min] [2]: 7.5
"CNc1ccc(-c2nc3ccc(OCC(O)C[18F])cc3s2)cn1 (racemic) [Example 13, 2-[2-(N-monomethyl)aminopyridin-5-yl]-6-[(R/S)-3-[^18F]fluoro-2-hydroxypropoxy]benzothiazole]",,6.5,1.0,11.1,45,10.8,
"CNc1ccc(-c2cc3ccc(OCC(O)CF)cc3s2)cn1 (racemic) [Example 2, 2-[2-(N-monomethyl)aminopyridin-5-yl]-6-[(R/S)-3-fluoro-2-hydroxypropoxy]benzothiophene]",0.49,,,,,,
"CNc1ccc(-c2cc3ccc(OCC(O)CF)cc3s2)nn1 (racemic) [Example 5, 2-[3-(N-monomethyl)aminopyridazin-6-yl]-6-[(R/S)-3-fluoro-2-hydroxypropoxy]benzothiophene]",0.42,,,,,,
